Measured values: paper PMC5855875, “Teixobactin analogues reveal enduracididine to be non-essential for highly potent antibacterial activity and lipid II binding” (Chemical Science, 2017)
Converted amounts (≈) assume the structure as drawn. Bridge positions count the residues as written; N and C are the ends. Square brackets hold non-standard residues; d marks the D form. Peptide text beside a SMILES is read from it. d(aIle) = CC[C@H](C)[C@@H](N)C(=O)O; dNMeF = CN[C@H](Cc1ccccc1)C(=O)O

What was measured:
MRSA DM21455 = assay: Time-kill kinetics; type: cell-based, Methicillin-resistant Staphylococcus aureus; settings: 0.5 μg mL^–1; MHB containing 0.002% v/v polysorbate 80; 37 °C; average of two independent experiments
Description: IX. Time-dependent killing of bacteria by teixobactin analogues 12 and 13 Time-kill kinetics against MRSA DM21455 strains (clinical isolates from patients) was carried out in MHB. Cultures were grown overnight in MHA plates and adjusted to a final inoculum of 10^5 – 10^6 CFU/ml in MHB (containing 0.002% v/v, polysorbate 80) with teixobactin analogues 12 and 13 maintained at a final concentration of 0.5 µg/ml. For vancomycin, the concentration was varied from 0.5 – 16 µg/ml without polysorbate 80. The tubes were then incubated at 37 °C. 100 µl of cell suspension was withdrawn at various time points (0, 2, 4, 8, 24 h), serially diluted (101-105 fold dilutions) and plated onto a MHA plates and incubated for 24 h at 37 °C.
Colonies were then enumerated […]. Colony counting too numerous to count (>300 colonies) was taken as 1010 CFU. Average values from two independent experiments are reported. […]
(§1) (also on this page, place not known: polyso rbate vancomycin , concentr ation 80 . wer e µ l (10 1-105 10 10 previously n - TL C three S76: (Ala10-teixobactin) literature.7 Lipid II Lipid II: Compound 8 = 1:1 Lipid II: Compound 16 = 1:1 Lipid II: Compound 8 = 1:2 Lipid II: Compound 16 = 1:2 Lipid II: Compound 8 = 1:4)

VRE 2: VRE ATCC 29212 = assay: organism not typed
Description: (§2) VIII. MIC testing (extended panel)
(§3) Bacterial cultures were grown overnight i n Mueller-Hinton Agar (MHA) plates and adjusted to a final concentration of 10 5 – 106 CFU/ml. 100 µl of inoculum in Meuller -Hinton broth (MHB) was mixed with equal volume of peptides (dissolved in MHB) at 2x their concentration in a 96 well plate. In parallel experiments, MIC values were determined in the media containing polysorbate 80 (0 .002%, v/v) to […]
(§4) prevent non-specific adsorption of the peptides to plastic surfaces. The final peptides concentrations […]
(§5) Positive and negative controls contained 200 µl of inoculum without any peptide dissolved in broth, respectively. The 96 well plates were then incubated at 37 °C for 24 h. […]
(§6) 80. Strain information: MRSA 1: MRSA ATCC 700699, MRSA 2: MRSA DR 42412 (sputum), MRSA
(§7) 3: MRSA DM21455 (eye). […] Staphylococcus aureus ATCC

VRE 1: VRE ATCC 700802 = assay: organism not typed
Description: as §2, §3, §4, §5, §6, §7

MRSA ATCC 33591 = assay: microbe, parasite or virus in culture; settings: ATCC 33591, 24 h
Description: (§8) were grown in Mueller Hinton broth (Oxoid) in triplicate. All incubations were at 37°C. Dilutions were carried out in triplicate. 100 µl of autoclaved Mueller Hinton broth was added to wells 2-12 in a 96-well plate. 200 µl of the peptide was added to well one at a concentration of 256 µg/mL. 100µl of peptide in well one was taken up and pipetted into well two. The mixture was then mixed via pipetting before 100µl was taken up and pipetted into well three. This process was repeated up to well 11. Once […]
(§9) peptide present. Thus, the concentrations (in µg/mL) were: 256, 128, 64, 32, 16, 8, 4, 2, 1, 0.5, 0.25 and no peptide present. Each well was then inoculated with 100µl of bacteria that had been diluted to an […]
(§10) This was repeated three times. The 96-well plates were then incubated at 37°C for 24 hours. The MIC was determined to be the lowest concentration at which there was no growth visible. […]
(§11) was repeated at an altered initial concentration of 64 µg/ml. Therefore, the new concentrations for MIC […]
as §2, §3

[1] = system: MRSA 2: MRSA DR 42412 (sputum); assay: microbe, parasite or virus in culture
Description: as §2, §3, §4, §5, §6, §7

[2] = Lipid II TLC binding assay; settings: peptide : lipid II 2 : 1; 50 mM Tris/HCl, pH 7.5, 30 min, room temperature; three independent experiments
Description: X. Complex formation of teixobactin with lipid II and geranyl pyrophosphate Complex formation of teixobactin analogues 8 (Ala10-teixobactin) and 16 (Arg10-teixobactin) with lipid II and geranyl pyrophosphate was performed using TLC as described previously.7 Binding of teixobactin to lipid II and geranyl pyrophosphate was analysed by incubating 30 µL of 2 nmol of each precursor with 2 or 4 nmoles of teixobactin in 50 mM Tris/HCl, pH 7.5, for 30 min at room temperature. Complex formation was analysed by extracting unbound precursors from the reaction mixture with 30 µL n- butanol/6M pyridine acetate (pH 4.2) (2:1; vol/vol) followed by TLC analysis of the organic layer using chloroform/methanol/water/ammonia (88:48:10:1, v/v/v/v) as the solvent and detection of lipid/phosphate containing precursors by phosphomolybdic acid staining. The TLC figures represent the results obtained through thr ee independent experiments.
Figure S76 : Binding of teixobactin analogues 8 (Ala10-teixobactin ) and 16 (Arg10-teixobactin) with lipid II using the protocols described in literature .7 Partial binding is observed when the ratio of lipid II to the analogue is 1:1 (indicated by lighter spots on the TLC) and complete binding is observed when the ratio of lipid II to the analogue is 1:2 in case of analogue 16 and 1:4 in case of analogue 8 (indicated […]
as §1

M. smegmatis ATCC 607 = assay: microbe, parasite or virus in culture; settings: ATCC 607, 72 h
Description: as §8, §9, §10, §11
Middlebrook 7H9 broth (SIGMA) supplemented to 5% Middlebrook ADC (SIGMA) growth

[3] = system: MRSA 3: MRSA DM21455 (eye); assay: microbe, parasite or virus in culture
Description: as §2, §3, §4
(§12) Positive and negative controls contained 200 µl of inoculum without any peptide dissolved in broth, respectively. The 96 well plates were then incubated at 37 °C for 24 h.
(§13) All the experiments were performed in two independent duplicates and the MIC was determined as the […]
(§14) Minimum bactericidal concentration
(§15) The lowest concentration in which no visible colonies could be detected was taken as the MBC.
as §6, §7

MRSA 1: MRSA ATCC 700699 = assay: microbe, parasite or virus in culture
Description: as §2, §3, §4, §12, §13, §14, §15, §6, §7

[4] = system: Staphylococcus aureus ATCC 29213; assay: microbe, parasite or virus in culture
Description: as §2, §3, §4, §12, §13, §14, §15, §6, §7

Compound: CC[C@H](C)[C@H](NC(=O)[C@@H](Cc1ccccc1)NC)C(=O)N[C@@H](CO)C(=O)N[C@H](CCC(N)=O)C(=O)N[C@@H](C(=O)N[C@H](C(=O)N[C@@H](CO)C(=O)N[C@H]1C(=O)N[C@@H](C)C(=O)N[C@@H](CC(C)C)C(=O)N[C@@H]([C@@H](C)CC)C(=O)O[C@H]1C)[C@@H](C)CC)[C@@H](C)CC [Compound 13, Leu10-teixobactin] (H-[dNMeF]IS[dQ][d(aIle)]IS[dT]ALI; ester 8-C)
- time to complete bactericidal activity (MRSA DM21455): ≤ 8 h
- MIC (VRE 2: VRE ATCC 29212; ATCC 29212, 24 h): 0.25 μg mL^–1
- MIC (without polysorbate 80) (VRE 2: VRE ATCC 29212; ATCC 29212, 24 h): 2 µg/mL (≈ 1.66 µM)
- MIC (with polysorbate 80) (VRE 2: VRE ATCC 29212; VRE 2, MHB containing polysorbate 80 (0.002%, v/v), 37 °C, 24 h): 0.25 µg/mL (≈ 0.208 µM)
- MIC (VRE 1: VRE ATCC 700802; ATCC 700802, 24 h): 0.25 μg mL^–1
- MIC (without polysorbate 80) (VRE 1: VRE ATCC 700802; ATCC 700802, 24 h): 2 µg/mL (≈ 1.66 µM)
- MIC (with polysorbate 80) (VRE 1: VRE ATCC 700802; VRE 1, MHB containing polysorbate 80 (0.002%, v/v), 37 °C, 24 h): 0.25 µg/mL (≈ 0.208 µM)
- MIC (MRSA ATCC 33591): 0.25 μg mL^–1
- MIC ([1]; 2: DR 42412 (sputum, 24 h)): ≤0.0625 μg mL^–1
- MIC (without polysorbate 80) ([1]; 2: DR 42412 (sputum, 24 h)): 2 µg/mL (≈ 1.66 µM)
- MIC (with polysorbate 80) ([1]; MRSA 2, MHB containing polysorbate 80 (0.002%, v/v), 37 °C, 24 h): ≤ 0.0625 µg/mL
- lipid II spot on TLC [2]: complete disappearance of the lipid II spot
- MIC (M. smegmatis ATCC 607): ~1 μg mL^–1
- MIC ([3]; 3: DM21455 (eye, 24 h)): ≤0.0625 μg mL^–1
- MIC (without polysorbate 80) ([3]; 3: DM21455 (eye, 24 h)): 2 µg/mL (≈ 1.66 µM)
- MIC (with polysorbate 80) ([3]; MRSA 3, MHB containing polysorbate 80 (0.002%, v/v), 37 °C, 24 h): ≤ 0.0625 µg/mL
- MIC (MRSA 1: MRSA ATCC 700699; ATCC 700699, 24 h): 0.25 μg mL^–1
- MIC (without polysorbate 80) (MRSA 1: MRSA ATCC 700699; ATCC 700699, 24 h): 2 µg/mL (≈ 1.66 µM)
- MBC (MRSA 1: MRSA ATCC 700699; MRSA 1 (MRSA ATCC 700699), plated on MHA, 37 °C, 24 h): 2 μg mL^–1
- MIC (with polysorbate 80) (MRSA 1: MRSA ATCC 700699; MRSA 1, MHB containing polysorbate 80 (0.002%, v/v), 37 °C, 24 h, two independent duplicates): 0.25 µg/mL (≈ 0.208 µM)
- MIC (without polysorbate 80) ([4]; ATCC 29213, 24 h): 1 µg/mL (≈ 0.832 µM)
- MIC (with polysorbate 80) ([4]; S. aureus ATCC 29213, MHB containing polysorbate 80 (0.002%, v/v), 37 °C, 24 h): ≤ 0.0625 µg/mL
- MBC ([4]; Staphylococcus aureus ATCC 29213, plated on MHA, 37 °C, 24 h): 0.125 μg mL^–1
